The text below walks through data of PubChem BioAssay AID1902 (Broad Institute, 2009).

Activity calls are given as the source filed them.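 The calls were made as follows: active = EC50 no more than a set limit of log units above the highest dose; inactive = the rest.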

For orientation: EC50 means the concentration that produces a half-maximal response.

The test deals with S. pyogenes SKKanGAS, kanamycin survival, BacTiterGlo, 6 h. Briefly: S. pyogenes SKKanGAS kanamycin growth inhibitors – SKKanGAS strain, luminescence, dose confirmation, streptokinase promoter inhibitor project, dose response (AID 1902).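 Also: lower survival reflects blocked streptokinase promoter driving kanamycin resistance gene.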
`CCCCc1nc(N2CCN(C(=O)c3ccco3)CC2)c(C#N)c2c1CCCC2`: the half-maximal effective concentration (EC50) is 6.45 µM. Consider `OCCN(CCO)c1ccc(C(c2ccccc2Cl)c2ccc(N(CCO)CCO)cc2Cl)c(Cl)c1`, for which the EC50 was 5.06 µM.

Turning to `O=c1c2c([N+](=O)[O-])cc([N+](=O)[O-])cc2sn1Cc1ccccc1`, the EC50 is 6.62 µM. Take `CCc1c(C2(O)CCCCC2)[nH]c2c(C(=O)OC)cc(Cl)cc12`: the EC50 was 4.12 µM. Turning to `O=C(CSc1nnc(CNC(=O)c2ccccc2)o1)NCc1ccccc1`, the EC50 was > 15 µM (inactive).

Turning to `CCCCn1c(=O)c(C(=O)NCCc2ccccc2)c(O)c2ccccc21`, the EC50 was 3.73 µM. For `Cc1ccc(C(C)C)cc1NC(=O)Nc1ccc([N+](=O)[O-])cc1`, the EC50 was 3.75 µM. In the case of `O=[N+]([O-])c1ccc(Nc2nc(NCCO)nc(N3CCCC3)n2)cc1`, the concentration giving a half-maximal response (EC50) was 5.91 µM. The same measure for `O=C(CSc1ccc(-c2ccc(Cl)cc2)nn1)NC1CCCC1`: > 15 µM (inactive); for `CN(C)CCCNc1cc(C(C)(C)C)nc2c(-c3ccc(Cl)cc3)cnn12`: 1.94 µM. The value for `Nc1nc(Nc2ccc(Cl)cc2)nc(NCc2ccco2)c1[N+](=O)[O-]` was 6.56 µM; that for `Cc1cc(C)n(C(=O)/C(C#N)=N/Nc2cc(Cl)cc(Cl)c2)n1` was 1.76 µM. Regarding `O=C(Nc1nnc(-c2ccc3c(c2)CCCC3)o1)c1c(F)cccc1F`, the half-maximal effective concentration (EC50) is 0.612 µM. Take `CCOC(=O)c1sc2nc(Cc3ccc(Cl)cc3)[nH]c(=S)c2c1C`: the EC50 was 3.21 µM. As to `CC(C)(O)c1[nH]c2cc(F)ccc2c1C(C)(C)O`, the concentration giving a half-maximal response (EC50) is 1.67 µM.

In the case of `C/C(=N\NC(=O)c1ccc(Cl)c(Cl)c1)c1ccc(Br)s1`, the EC50 was 0.563 µM.

For the compound `COc1ccc(C(=O)CSc2[nH]c(=O)cc(C(F)(F)F)c2C#N)cc1`, the half-maximal effective concentration (EC50) was 7.06 µM. `N=C1SCC(=O)N1c1ncc(Cc2cccc(Cl)c2)s1`: the EC50 was 0.145 µM.

Turning to `CCC1(C)Cc2ccccc2-c2c1c(=O)n(Cc1ccccc1)c1nnnn21` (stereo unspecified), the EC50 is 1.51 µM. For the compound `Cc1cc(C)cc(NC(=S)NCCSc2ccc(Cl)cc2)c1`, the EC50 was 13.5 µM.

As for `Cc1ccc(NC(=O)NCc2ccccn2)cc1Cl`, the EC50 was > 15 µM (inactive). Regarding `COc1ccc(-c2c(C#N)c(N)nc3sc(C(=O)c4ccccc4)c(N)c23)cc1`, the EC50 is 5.9 µM. Take `C[C@H]1COC2=C1C(=O)C(=O)c1c2ccc2c1CCCC2(C)C`: the EC50 was 3.95 µM. The value for `Clc1ccc(/C=N/NC(=Nc2ccccc2)c2ccccn2)c(Cl)c1` was 13.5 µM; that for `O=C(/C=C/c1ccccc1)NC(NC(=S)Nc1cc(Cl)ccc1Cl)C(Cl)(Cl)Cl` (stereo unspecified) was 0.55 µM; that for `Cc1cccc(OCCCCc2c(C)n[nH]c2C)c1C` was 4.74 µM. For the compound `CCOc1ccc(/C=N/NC(=O)Cc2csc(Nc3cccc(C(F)(F)F)c3)n2)cc1`, the concentration giving a half-maximal response (EC50) was 6.35 µM.

For the compound `CCc1ccc(CNc2ccc3c(c2)ncn3C(C)(C)C)cc1`, the EC50 was 3.3 µM. On to `COc1cnc(-c2ccccn2)nc1Oc1c(C)cccc1C`, for which the EC50 was 0.202 µM. `Oc1c(C(Nc2ccccn2)c2cccnc2)cc(Cl)c2cccnc12` (stereo unspecified): the EC50 was 2.46 µM.

In the case of `CCOC(=O)c1cnn(-c2nc3c(C)cccc3s2)c1C(F)(F)F`, the EC50 was 12.5 µM. The value for `COc1ccc(-c2oc3ncn(Cc4ccco4)c(=N)c3c2-c2ccc(OC)cc2)cc1` was 4.76 µM; that for `Cc1cc(C)nc(NC(N)=NCCc2c[nH]c3ccccc23)n1` was 11.6 µM. With `O=C(CSc1nnc(NC(=O)c2ccccc2)s1)NCC1CCCO1` (stereo unspecified), the EC50 is > 15 µM (inactive). With `O=C(Nc1nnc(SCc2c(Cl)cccc2Cl)s1)C1CC(=O)N(c2ccc3c(c2)OCCO3)C1` (stereo unspecified), the EC50 was 9.74 µM. In the case of `Cc1ccccc1-c1cc(C(=O)Nc2sc(C(=O)OC(C)C)c(C)c2C#N)c2ccccc2n1`, the EC50 is 5.49 µM. For `O=C(Nc1nc2ccc(SC(F)F)cc2s1)c1ccc(NS(=O)(=O)c2ccc(F)c(F)c2)cc1`, the EC50 was 1.89 µM. On to `O=C(O)c1ccccc1N/N=C/c1cc(Br)cc(Br)c1O`, for which the EC50 was 7.96 µM.

On to `COc1ccccc1C(=O)NNC(=O)C(=O)Nc1cccc(Cl)c1C`, for which the half-maximal effective concentration (EC50) was 3.44 µM.

Consider `O=C(CNc1cccc2ccccc12)N/N=C/c1ccc([N+](=O)[O-])o1`, for which the EC50 was 1.12 µM. `O=C(/C=C/c1ccc(F)cc1)NC(=S)NNC(=O)c1cnccn1`: the EC50 is 1.96 µM.

As for `Cc1cccc(/C=C/C(=O)c2cc(Br)ccc(=O)c2O)c1`, the EC50 was 0.818 µM. Consider `Cc1nc(N)nc(N)c1CCCc1ccc(Cl)c(Cl)c1`, for which the EC50 was 0.87 µM. For the compound `COc1ccc(CN2C(=O)c3ccccc3C(/C=N\OCc3ccc(C)cc3)C2=O)cc1` (stereo unspecified), the EC50 is 1.29 µM.

`FC(F)Sc1ccc(NC(=S)NC(c2ccccc2)c2ccccc2)cc1`: the EC50 is 2.28 µM.

With `CSc1nc(Oc2ccc3ccccc3c2)c2sccc2n1`, the EC50 was 7.58 µM.

On to `Cc1cccc(OC(=O)c2sc3ncn(C)c(=O)c3c2C)c1`, for which the EC50 was 4.09 µM. For `O=[N+]([O-])c1ccc(N2N=C(c3ccccc3)CC2c2ccccc2O)cc1` (stereo unspecified), the EC50 was 2.25 µM. Take `Cc1ccc(-n2c(O)c(C=Nc3ccccc3-c3n[nH]c(=S)[nH]c3=O)c3ccccc3c2=O)cc1C`: the EC50 was 0.915 µM. The same measure for `COC(=O)c1cc(S(=O)(=O)n2nc(C)c(Br)c2C)c(Cl)cc1Cl`: 1.01 µM; for `O=C(CSc1nnc(CNC(=O)c2ccc(F)cc2)o1)NCc1ccccc1Cl`: > 15 µM (inactive).

As for `CC(C)(C)OC(=O)[C@H](Cc1ccccc1)NC(=O)c1[nH]cnc1C(=O)Nc1ccc(Cl)cc1`, the EC50 is 3.52 µM. For the compound `CC(=O)Oc1ccc(-c2nc(-c3cccnc3)no2)cc1`, the EC50 is 4.93 µM. Regarding `Cc1cccc(C)c1-n1cccc1/C=C1\SC(=S)N(c2cccc(C(=O)O)c2)C1=O`, the 50% effective concentration (EC50) was 2.26 µM. Consider `CCOC(=O)C1=C(N)c2ccccc2CC1C1CCCC1` (stereo unspecified), for which the EC50 is 3.26 µM.

Take `Oc1c(Cl)cc(Cl)c2cccnc12`: the EC50 was 0.148 µM. Consider `Cc1ccc(Cn2ccc(=O)c(OCc3c(Cl)cccc3Cl)c2C)cc1`, for which the EC50 was 5.94 µM. Take `CCOC(=O)c1ccc(NC(=O)CC2S/C(=N/N=C/c3c[nH]c4ccccc34)NC2=O)cc1` (stereo unspecified): the concentration giving a half-maximal response (EC50) is 7.73 µM. The value for `O=C(Nc1cccc(Cl)c1)Nc1cc(S(=O)(=O)N2CCCCC2)ccc1Cl` was 7.75 µM. In the case of `c1ccc(-c2nc(N3CCCCCC3)c3ccccc3n2)nc1`, the EC50 is 1.43 µM. As to `CCOC(=O)c1cnn(-c2nc(-c3ccccc3)cs2)c1C(F)(F)F`, the EC50 is 5.29 µM. In the case of `Cc1nn(Cc2c(Cl)cccc2Cl)c(C)c1NC(=O)c1cn(-c2ccccc2)nc1-c1ccccc1`, the EC50 is 9.33 µM. With `c1ccc2c(-c3c[nH]c4ccccc34)c3ccccc3nc2c1`, the EC50 is 10.9 µM. With `CCN(c1ccc(OC)cc1)S(=O)(=O)c1nnc(NC(=O)c2ccccc2Cl)s1`, the 50% effective concentration (EC50) was 3.31 µM. For the compound `N=c1c(-c2nc3ccccc3[nH]2)cc(C(=O)c2cccs2)nn1-c1ccccc1`, the EC50 was 1.89 µM. For the compound `CCOC(=O)C1=C(C)N=c2s/c(=C\c3ccc(O)c([N+](=O)[O-])c3)c(=O)n2C1c1ccccc1OC` (stereo unspecified), the EC50 is 6.9 µM. For `Cc1cc(=O)[nH]c(SCC(=O)Nc2ccc(Br)cc2)c1C#N`, the EC50 was 9.7 µM.

For `CCS(=O)(=O)c1nc(S(=O)(=O)c2ccc(C)cc2)c(NCCN2CCOCC2)s1`, the EC50 was > 15 µM (inactive). Regarding `C/C(=N\NC(=O)c1ccc(C)cc1)c1c(C)[nH]n(-c2ccccc2)c1=O`, the EC50 was 2.15 µM.

With `NC(=S)N/N=C/c1ccc(C23CC4CC(CC(C4)C2)C3)cc1`, the EC50 was 3.91 µM. Turning to `CCCCCCc1cc2cc(-c3nnc(-c4ccccc4)o3)c(=O)oc2cc1O`, the EC50 was 3.05 µM.

On to `Cn1c(=O)c2c(nc(SCc3ccccc3)n2Cc2ccc(Cl)cc2)n(C)c1=O`, for which the EC50 is 2.3 µM. Regarding `CC(C)(C)c1cc(C(=O)N/N=C/c2ccc([N+](=O)[O-])s2)n[nH]1`, the EC50 is 7.4 µM. The value for `Cc1ccnc(NC(c2ccsc2)c2ccc3ccc(C)nc3c2O)c1` (stereo unspecified) was 11.7 µM. Regarding `O=C(COc1ccc(Cl)cc1Cl)Nc1ccc(-c2ccc(N3CCOCC3)nn2)cc1`, the EC50 is > 15 µM (inactive). For `CCCCCCCCOC(=O)C1=C(C)Nc2nnnn2C1c1cccs1` (stereo unspecified), the EC50 was 3.45 µM.

Turning to `CC(C)C(=O)Nc1ccc(C(=O)N/N=C/c2cc(Br)cc(Br)c2O)cc1`, the half-maximal effective concentration (EC50) is 1.36 µM. The same measure for `C=CCn1c(SCC(=O)/C(C#N)=C(\C)N)nc2sc(C)c(C)c2c1=O`: 5.25 µM; for `S=c1[nH]nc(C2CCCCC2)n1/N=C/c1cccc(Cl)c1Cl`: 5.59 µM; for `C=CCn1c(O)c(C(C)=Nc2ccc(N(CC)CC)cc2)c(=O)[nH]c1=O`: 5.73 µM. As for `Cc1ccccc1Nc1nc(N)nc(CN(C)Cc2ccccc2Cl)n1`, the EC50 is 1.76 µM. The same measure for `COc1ccc(NC(=O)c2nc[nH]c2C(=O)N[C@@H](CC(C)C)C(=O)OC(C)(C)C)cc1`: 3.28 µM; for `O=C(CC1CCCCC1)c1c(O)c2ccccc2oc1=O`: 3.54 µM; for `COc1ccc2c(c1)C(=NNc1ccc(C(=O)O)cc1)c1cc(OC)ccc1-2`: 4.68 µM.

`CC(C)CC(=O)Nc1ccc(C(=O)NNC(=S)NC(=O)C2CCCCC2)cc1`: the EC50 was 1 µM. Regarding `COc1ccccc1N=Nc1ccc(O)c2ncccc12`, the EC50 is 0.665 µM. For the compound `O=C(CN(C(=O)Cn1nnc(-c2ccccc2F)n1)c1cccc2c1CCCC2)NCc1ccccc1`, the EC50 is 5.32 µM.

Regarding `CCc1ccc(/C=C/c2c([N+](=O)[O-])c(=O)n(C)c(=O)n2C)cc1`, the EC50 was 11 µM. For the compound `Cc1cccc(/C=C2/S/C(=N/N=C3\CC4CCC3(C)C4(C)C)NC2=O)c1` (stereo unspecified), the EC50 was 1.19 µM. Turning to `Cc1csc2nc(CSc3nc4ccccc4o3)c(Br)n12`, the EC50 is 6.42 µM. With `CC(C)CCC(CCNCc1ccccn1)c1ccc(Cl)cc1` (stereo unspecified), the EC50 was 13.2 µM. Consider `O=c1cc(-c2ccccc2Cl)oc2c(NS(=O)(=O)c3cc(Cl)cc(Cl)c3O)ccc(O)c12`, for which the EC50 was 0.552 µM.

Regarding `COc1cccc(NP(=O)(Oc2ccc(Cl)cc2)Oc2ccc(Cl)cc2)c1`, the EC50 is 3.22 µM.

Take `O=C(NCc1ccco1)c1cc2ccc(O)cc2oc1=O`: the EC50 was 5.85 µM.

Turning to `COc1cc([N+](=O)[O-])cc(/C=N/NC(=O)c2ccc(C)nc2)c1O`, the EC50 is 2.61 µM. `O=C(Cc1ccccc1)N/N=C/c1ccccn1`: the EC50 was > 15 µM (inactive).
